Assay results published in ChEMBL document CHEMBL5113491, “Discovery of N-benzylarylamide derivatives as novel tubulin polymerization inhibitors capable of activating the Hippo pathway” (Eur J Med Chem, 2022).
Calls of active or inactive are those of the source. The calls are words filed in the database; no cut-off is given here.

Experiments:
SGC-7901 [1] = experiment: Induction of apoptosis in human SGC-7901 cells assessed as decrease in Mcl-1 protein expression measured after 48 hrs by Western blot analysis; type: functional, cell-based; settings: dose 15-45 nmol/L, DDE = dose-dependent effect
SGC-7901 [2] = experiment: Downregulation of Axl protein expression in human SGC-7901 cells at 15 to 45 nmol/L measured after 48 hrs by Western blot analysis; type: functional, cell-based; settings: dose 15-45 nmol/L
MGC-803 [3] = experiment: Antiproliferative activity against human MGC-803 cells assessed as inhibition of cell growth measured after 48 hrs by MTT assay; type: functional, cell-based; settings: MGC-803, 48 h
[4] = Cytotoxicity against human HUVEC cells assessed as reduction in cell viability measured after 48 hrs by MTT assay; type: toxicity, cell-based
SGC-7901 [5] = experiment: Induction of cell cycle arrest in human SGC-7901 cells assessed as increase in G2/M phase cells at 45 nmol/L measured after 24 hrs by flow cytometry (reference value: 7.04%); type: functional
Tubulin (Homo sapiens) = Tubulin (Homo sapiens) (UniProt P68371+Q9H4B7+P0DPH7+P68366+Q13509+Q71U36+P04350+Q3ZCM7+P07437+P68363+Q9BQE3+Q6PEY2+Q13885+Q9BVA1+Q9BUF5); experiment: Induction of microtubule disruption in human SGC-7901 cells at 25 nmol/L measured after 48 hrs by DAPI staining based immunofluorescence assay; type: cell-based
MGC-803 [6] = experiment: Induction of morphological changes in human MGC-803 cells assessed as increase in proportion of dead cells at 15 to 45 nmol/L measured after 48 hrs by calcein-AM/PI staining based microscopic analysis; type: functional, cell-based; settings: dose 15-45 nmol/L
MGC-803 [7] = experiment: Induction of apoptosis in human MGC-803 cells assessed as decrease in Mcl-1 protein expression measured after 48 hrs by Western blot analysis; type: functional, cell-based; settings: dose 15-45 nmol/L, DDE = dose-dependent effect
SMMC-7721 = experiment: Antiproliferative activity against human SMMC-7721 cells assessed as inhibition of cell growth measured after 48 hrs by MTT assay; type: functional, cell-based; settings: SMMC-7721, 48 h

IC50 (MGC-803 [3]): 27 nM | Activity (Tubulin (Homo sapiens)): Active | IC50 (SMMC-7721): 43 nM
Structure (SMILES): C/C=C/C(=O)N(Cc1ccc(OC)c(O)c1)c1cc(OC)c(OC)c(OC)c1
Activity (SGC-7901 [1]): Dde | Activity (SGC-7901 [2]): Active | IC50 at 48 h [4]: 48500 nM | Activity (SGC-7901 [5]): 80.89% | Activity (MGC-803 [6]): Active | Activity (MGC-803 [7]): Dde
